Source: patent publication US20200291018A1, “TAM KINASE INHIBITORS” (SYROS PHARMACEUTICALS, INC., priority 2017, published 2020)

How the values were obtained:
[1] = target: T1, TYRO3 (Homo sapiens, UniProt Q06418); experiment: TR-FRET kinase activity assay, TYRO3; assay type: biochemical; conditions: ATP at Km, 60 minutes
T1 sequence (Q06418 41-890): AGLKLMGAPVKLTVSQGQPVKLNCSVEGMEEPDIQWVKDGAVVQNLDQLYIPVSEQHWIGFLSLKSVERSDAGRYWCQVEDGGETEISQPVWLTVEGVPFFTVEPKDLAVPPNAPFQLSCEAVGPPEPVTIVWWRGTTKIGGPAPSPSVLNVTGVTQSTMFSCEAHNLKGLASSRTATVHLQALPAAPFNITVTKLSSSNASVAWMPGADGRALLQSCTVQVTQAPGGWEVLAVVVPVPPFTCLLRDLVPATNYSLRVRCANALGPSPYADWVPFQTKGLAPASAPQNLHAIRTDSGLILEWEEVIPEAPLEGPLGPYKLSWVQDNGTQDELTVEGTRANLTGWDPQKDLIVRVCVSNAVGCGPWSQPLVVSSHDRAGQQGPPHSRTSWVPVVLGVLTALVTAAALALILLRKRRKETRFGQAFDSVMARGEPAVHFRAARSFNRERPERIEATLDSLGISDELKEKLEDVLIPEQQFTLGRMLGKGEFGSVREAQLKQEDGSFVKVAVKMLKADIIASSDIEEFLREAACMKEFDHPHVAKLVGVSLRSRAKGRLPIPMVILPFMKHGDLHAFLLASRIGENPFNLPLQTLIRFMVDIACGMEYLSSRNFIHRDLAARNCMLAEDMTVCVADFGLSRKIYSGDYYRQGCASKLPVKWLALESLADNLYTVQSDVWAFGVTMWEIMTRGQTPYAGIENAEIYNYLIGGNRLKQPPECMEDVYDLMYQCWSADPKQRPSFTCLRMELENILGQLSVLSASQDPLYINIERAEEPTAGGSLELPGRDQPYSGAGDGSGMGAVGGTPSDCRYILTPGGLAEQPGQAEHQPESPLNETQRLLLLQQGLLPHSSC
Method in brief: (§1)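 IC50 came from TR-FRET signal after 30 min dark development with a Europium-labeled phospho-specific antibody. This followed a 60 min RT reaction, stopped with EDTA, started with ATP at Km per enzyme. Peptide substrate, enzyme and compound were premixed in HEPES pH 7.5 buffer with MgCl2, EGTA, Brij 35 and DTT.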

[2] = target: T2, MERTK (Homo sapiens, UniProt Q12866); experiment: TR-FRET kinase activity assay, MERTK; assay type: biochemical; conditions: for IC50: TR-FRET activity assay, ATP at Km, 60 minutes, read-out: Mer IC50; for Mer/Flt3 ratio (FLT3 IC50/Mer IC50): ratio calculated as FLT3 IC50/Mer IC50
T2 sequence (Q12866 21-999): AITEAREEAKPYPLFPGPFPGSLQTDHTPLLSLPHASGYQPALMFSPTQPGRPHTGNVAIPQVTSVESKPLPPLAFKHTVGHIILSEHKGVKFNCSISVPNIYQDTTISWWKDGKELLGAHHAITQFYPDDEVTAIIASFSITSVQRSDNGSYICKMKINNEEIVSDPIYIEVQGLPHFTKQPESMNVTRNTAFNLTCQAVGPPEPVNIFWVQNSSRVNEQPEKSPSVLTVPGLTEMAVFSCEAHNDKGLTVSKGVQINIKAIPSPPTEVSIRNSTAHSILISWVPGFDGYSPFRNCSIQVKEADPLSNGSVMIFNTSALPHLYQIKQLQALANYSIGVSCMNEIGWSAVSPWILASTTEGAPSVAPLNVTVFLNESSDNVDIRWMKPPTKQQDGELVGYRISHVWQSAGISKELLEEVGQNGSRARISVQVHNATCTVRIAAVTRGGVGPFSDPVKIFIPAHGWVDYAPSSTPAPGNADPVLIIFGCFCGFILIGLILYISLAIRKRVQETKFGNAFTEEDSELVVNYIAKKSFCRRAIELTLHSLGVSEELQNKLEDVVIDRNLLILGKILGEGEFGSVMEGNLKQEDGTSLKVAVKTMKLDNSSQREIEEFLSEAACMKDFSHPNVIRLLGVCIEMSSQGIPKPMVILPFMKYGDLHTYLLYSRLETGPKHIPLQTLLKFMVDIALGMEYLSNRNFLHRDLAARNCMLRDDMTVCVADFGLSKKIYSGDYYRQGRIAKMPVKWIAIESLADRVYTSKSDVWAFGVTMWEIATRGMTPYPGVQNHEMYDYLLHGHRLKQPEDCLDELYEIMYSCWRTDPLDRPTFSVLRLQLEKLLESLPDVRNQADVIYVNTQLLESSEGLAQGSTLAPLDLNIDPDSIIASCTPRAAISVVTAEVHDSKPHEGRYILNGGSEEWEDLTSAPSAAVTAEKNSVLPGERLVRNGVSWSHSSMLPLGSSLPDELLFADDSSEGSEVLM
Method in brief: as §1

| SMILES | IC50 [1] [nM] | IC50 [2] [nM] | Mer/Flt3 ratio (FLT3 IC50/Mer IC50) [2] |
| --- | --- | --- | --- |
| CCCC(C)Nc1ncc2c(=O)n(C3CCN(C(C)C)CC3)cc([C@H]3CC[C@H](O)CC3)c2n1 (stereo partly drawn) [Compound 186] | > 10000 | ≤ 100 | +++ (a ratio of >100) |
| CCCC(C)Nc1ncc2c(N3CCC[C@@H](N(C)C)C3)ncc([C@H]3CC[C@H](O)CC3)c2n1 (stereo partly drawn) [Compound 188] | > 10000 | ≤ 100 | +++ (a ratio of >100) |
| C[C@H](Nc1ncc2c(OC3CCNCC3)ncc([C@H]3CC[C@H](O)CC3)c2n1)c1ccccc1 [Compound 189] | > 10000 | ≤ 100 | ++ (a ratio of between 10 and 100) |
| CCCC(C)Nc1ncc2c(OCCN(C)C)ncc([C@H]3CC[C@H](O)CC3)c2n1 (stereo partly drawn) [Compound 191] | > 10000 | ≤ 100 | +++ (a ratio of >100) |
| COC[C@H](C)Nc1ncc2c(O[C@H]3C[C@@H](O)C3(C)C)ncc([C@H]3CC[C@H](O)CC3)c2n1 [Compound 431] | ≤ 100 | ≤ 100 | +++ (a ratio of >100) |
| COCCN1[C@@H]2CC[C@H]1C[C@H](Oc1ncc([C@H]3CC[C@H](O)CC3)c3nc(N[C@@H](C)CC(F)(F)F)ncc13)C2 [Compound 432] | ≤ 100 | ≤ 100 | +++ (a ratio of >100) |
| CO[C@H]1C[C@@H](Oc2ncc([C@H]3CC[C@H](O)CC3)c3nc(N[C@@H](C)CC(F)(F)F)ncc23)C1 [Compound 434] | ≤ 100 | ≤ 100 | +++ (a ratio of >100) |
| CC(=O)N1[C@@H]2CC[C@H]1C[C@H](Oc1ncc([C@H]3CC[C@H](O)CC3)c3nc(N[C@@H](C)CC(F)(F)F)ncc13)C2 [Compound 436] | ≤ 100 | ≤ 100 | +++ (a ratio of >100) |
| C[C@@H](CC(F)(F)F)Nc1ncc2c(O[C@@H]3C[C@H]4CC[C@@H](C3)N4C3COC3)ncc([C@H]3CC[C@H](O)CC3)c2n1 [Compound 437] | ≤ 100 | ≤ 100 | +++ (a ratio of >100) |

Other lines, results leading:

| IC50 [1] [nM] | IC50 [2] [nM] | Mer/Flt3 ratio (FLT3 IC50/Mer IC50) [2] | SMILES |
| --- | --- | --- | --- |
| > 10000 | ≤ 100 | ++ (a ratio of between 10 and 100) | CCCC(C)Nc1ncc2c(OC3CCOCC3)ncc([C@H]3CC[C@@H](N(C)C)CC3)c2n1 (stereo partly drawn) [Compound 184] |
| > 10000 | ≤ 100 | ++ (a ratio of between 10 and 100) | CCCC(C)Nc1ncc2c(OC3CCOCC3)ncc([C@H]3CC[C@H](N(C)C)CC3)c2n1 (stereo partly drawn) [Compound 185] |
| ≤ 100 | ≤ 100 | ++ (a ratio of between 10 and 100) | CCCC(C)Nc1ncc2c(O[C@H]3C[C@H](O)C3)ncc([C@H]3CC[C@H](O)CC3)c2n1 (stereo partly drawn) [Compound 187] |
| 100 to 1000 | ≤ 100 | +++ (a ratio of >100) | CCC[C@H](C)Nc1ncc2c(OC3CCN(C)CC3)ncc([C@H]3CC[C@H](O)CC3)c2n1 [Compound 190] |
| > 10000 | ≤ 100 | +++ (a ratio of >100) | CCCC(C)Nc1ncc2c(=O)n(C3CCN(C(=O)CN(C)C)CC3)cc([C@H]3CC[C@H](O)CC3)c2n1 (stereo partly drawn) [Compound 192] |
| > 10000 | ≤ 100 | +++ (a ratio of >100) | CCCC(C)Nc1ncc2c(=O)n(CC3CCN(C)CC3)cc([C@H]3CC[C@H](O)CC3)c2n1 (stereo partly drawn) [Compound 193] |
| ≤ 100 | ≤ 100 | +++ (a ratio of >100) | C[C@@H](CC(F)(F)F)Nc1ncc2c(O[C@H]3C[C@](C)(O)C3)ncc([C@H]3CC[C@H](O)CC3)c2n1 [Compound 430] |
| ≤ 100 | ≤ 100 | +++ (a ratio of >100) | CC(=O)N[C@H]1C[C@@H](Oc2ncc([C@H]3CC[C@H](O)CC3)c3nc(N[C@@H](C)CC(F)(F)F)ncc23)C1 [Compound 433] |
| ≤ 100 | ≤ 100 | +++ (a ratio of >100) | COC(=O)N[C@H]1C[C@@H](Oc2ncc([C@H]3CC[C@H](O)CC3)c3nc(N[C@@H](C)CC(F)(F)F)ncc23)C1 [Compound 435] |
